Assay results published in paper PMC12511196 (European Journal of Clinical Pharmacology, 2025).

Key:
[1] = tested on: serotonin reuptake; conditions: cited from earlier work
[2] = tested on: CYP2D6; conditions: cited from earlier work
[3] = cited from earlier work
[4] = cited from earlier work; remark: listed apart in the source
[5] = Treatment switch from fluoxetine to an alternative antidepressant (proxy for therapeutic failure) by CYP2D6 phenotype; format: in vivo, human; conditions: adult patients; for Switch to alternative antidepressant, Frequency (%): within one year after last fluoxetine measurement
From the text: Consequently, an antidepressant switch was used as a proxy marker for therapeutic failure, regardless of the cause.
IBM SPSS Statistics version 28.0.1.1 (SPSS Inc, Chicago, IL) was used for statistical analysis and graphical presentations. Continuous variables were reported as median (range). The associations between CYP2D6 phenotype and pharmacokinetic measures such as absolute concentrations, C/D ratios and metabolic ratios were examined using Kruskal–Wallis test followed by Bonferroni-corrected Dunn’s test using CYP2D6 NMs as reference group. […] A p value below 0.05 was considered statistically significant.

SMILES	Potency as SSRI relative to R-norfluoxetine [1]	Type of CYP2D6 inhibition [2]	Elimination half-life [3]	Distribution to the brain [4]	Switch to alternative antidepressant where genotyping was not performed within the switch period, Frequency (%) ([5]; CYP2D6 IMs (n = 347))	Switch to alternative antidepressant where genotyping was not performed within the switch period, Frequency (%) ([5]; CYP2D6 NMs (n = 587))	Switch to alternative antidepressant where genotyping was not performed within the switch period, Frequency (%) ([5]; CYP2D6 PMs (n = 68))	Switch to alternative antidepressant where genotyping was not performed within the switch period, Frequency (%) ([5]; CYP2D6 UMs (n = 25))	Switch to alternative antidepressant where genotyping was not performed within the switch period, Frequency (%) ([5]; Total (n = 1027))	Switch to alternative antidepressant, Frequency (%) ([5]; CYP2D6 IMs (n = 347))	Switch to alternative antidepressant, Frequency (%) ([5]; CYP2D6 NMs (n = 587))	Switch to alternative antidepressant, Frequency (%) ([5]; CYP2D6 PMs (n = 68))	Switch to alternative antidepressant, Frequency (%) ([5]; CYP2D6 UMs (n = 25))	Switch to alternative antidepressant, Frequency (%) ([5]; Total (n = 1027))
NCC[C@H](Oc1ccc(C(F)(F)F)cc1)c1ccccc1 [S-norfluoxetine]	approximately 20 times													
NCCC(Oc1ccc(C(F)(F)F)cc1)c1ccccc1 (stereo not drawn) [norfluoxetine]		competitive and reversible inhibitors												
CNCCC(Oc1ccc(C(F)(F)F)cc1)c1ccccc1 (stereo not drawn) [fluoxetine]		competitive and reversible inhibitors	one to four	more distributed to the brain than norfluoxetine	6.3	6.6	10.3	12.0	6.9	8.6	8.3	19.1	24.0	9.5
